According to ChEMBL document CHEMBL2401728, “An unexpected Dimroth rearrangement leading to annelated thieno[3,2-d][1,2,3]triazolo[1,5-a]pyrimidines with potent antitumor activity” (Eur J Med Chem, 2013):

Key:
Type in all cases: functional
DU-145 = assay: Cytotoxicity against human DU145 cells assessed as cellular growth at 0.1 uM after 48 hrs by SRB assay relative to control
Malme-3M [1] = assay: Cytotoxicity against human MALME-3M cells after 48 hrs by SRB assay
MCF7 = assay: Cytotoxicity against human MCF7 cells assessed as cellular growth at 0.01 uM after 48 hrs by SRB assay relative to control
KM12 = assay: Cytotoxicity against human KM12 cells assessed as cellular growth at 1 uM after 48 hrs by SRB assay relative to control
MDA-MB-468 [2] = assay: Cytotoxicity against human MDA-MB-468 cells after 48 hrs by SRB assay; settings: MDA-MB-468, 48 h
[3] = Cytotoxicity against human EKVX cells assessed as cellular growth at 0.1 uM after 48 hrs by SRB assay relative to control
MDA-MB-231 = assay: Cytotoxicity against human MDA-MB-231 cells assessed as cellular growth at 1 uM after 48 hrs by SRB assay relative to control
TK-10 [4] = assay: Cytotoxicity against human TK10 cells after 48 hrs by SRB assay; settings: TK-10, 48 h
LOX IMVI = assay: Cytotoxicity against human LOXIMVI cells assessed as cellular growth at 0.01 uM after 48 hrs by SRB assay relative to control
HCT-15 [5] = assay: Cytotoxicity against human HCT15 cells assessed as cellular growth at 0.01 uM after 48 hrs by SRB assay relative to control
M14 = assay: Cytotoxicity against human M14 cells assessed as cellular growth at 10 uM after 48 hrs by SRB assay relative to control
NCI-H23 [6] = assay: Cytotoxicity against human NCI-H23 cells assessed as cellular growth at 1 uM after 48 hrs by SRB assay relative to control
TK-10 [7] = assay: Cytotoxicity against human TK10 cells assessed as cellular growth at 100 uM after 48 hrs by SRB assay relative to control
[8] = Cytotoxicity against human NCI-ADR-RES cells assessed as cellular growth at 1 uM after 48 hrs by SRB assay relative to control
OVCAR-3 = assay: Cytotoxicity against human OVCAR3 cells assessed as cellular growth at 1 uM after 48 hrs by SRB assay relative to control
HCT-15 [9] = assay: Cytotoxicity against human HCT15 cells assessed as cellular growth at 0.1 uM after 48 hrs by SRB assay relative to control
SF-539 = assay: Cytotoxicity against human SF539 cells assessed as cellular growth at 0.01 uM after 48 hrs by SRB assay relative to control
SNB-19 = assay: Cytotoxicity against human SNB19 cells assessed as cellular growth at 100 uM after 48 hrs by SRB assay relative to control
Malme-3M [10] = assay: Cytotoxicity against human MALME-3M cells assessed as cellular growth at 0.1 uM after 48 hrs by SRB assay relative to control
A498 = assay: Cytotoxicity against human A498 cells assessed as cellular growth at 0.1 uM after 48 hrs by SRB assay relative to control
Hs-578T = assay: Cytotoxicity against human Hs578T cells after 48 hrs by SRB assay
SK-OV-3 [11] = assay: Cytotoxicity against human SKOV3 cells assessed as cellular growth at 0.01 uM after 48 hrs by SRB assay relative to control
SNB-75 = assay: Cytotoxicity against human SNB75 cells after 48 hrs by SRB assay; settings: SNB-75, 48 h
TK-10 [12] = assay: Cytotoxicity against human TK10 cells assessed as cellular growth at 0.01 uM after 48 hrs by SRB assay relative to control
BT-549 = assay: Cytotoxicity against human BT549 cells after 48 hrs by SRB assay; settings: BT-549, 48 h
SK-OV-3 [13] = assay: Cytotoxicity against human SKOV3 cells assessed as cellular growth at 100 uM after 48 hrs by SRB assay relative to control
K562 [14] = assay: Cytotoxicity against human K562 cells after 48 hrs by SRB assay; settings: K562, 48 h
UACC-257 = assay: Cytotoxicity against human UACC257 cells assessed as cellular growth at 100 uM after 48 hrs by SRB assay relative to control
786-0 = assay: Cytotoxicity against human 786-0 cells assessed as cellular growth at 10 uM after 48 hrs by SRB assay relative to control
NCI-H226 = assay: Cytotoxicity against human NCI-H226 cells assessed as cellular growth at 1 uM after 48 hrs by SRB assay relative to control
K562 [15] = assay: Cytotoxicity against human K562 cells assessed as cellular growth at 1 uM after 48 hrs by SRB assay relative to control
SF-268 = assay: Cytotoxicity against human SF268 cells assessed as cellular growth at 1 uM after 48 hrs by SRB assay relative to control
NCI-H23 [16] = assay: Cytotoxicity against human NCI-H23 cells assessed as cellular growth at 0.01 uM after 48 hrs by SRB assay relative to control
MDA-MB-468 [17] = assay: Cytotoxicity against human MDA-MB-468 cells assessed as cellular growth at 0.01 uM after 48 hrs by SRB assay relative to control
OVCAR-5 = assay: Cytotoxicity against human OVCAR5 cells assessed as cellular growth at 0.01 uM after 48 hrs by SRB assay relative to control
[18] = Cytotoxicity against human NCI-ADR-RES cells after 48 hrs by SRB assay
[19] = read-out: LC50 (the source's name)
[20] = read-out: pLC50 (the source's name) (converted)

Q: With `CN1CCN(CCCn2c3c(sc4ncccc43)c(=O)n3nnc(-c4ccccc4)c23)CC1` as the compound, how does the Activity (DU-145) read?
A: 98%

Q: What about the GI50 (Malme-3M [1]; read-out: GI50) of the same compound?
A: 1.97 µM

Q: What about the CC50 (Malme-3M [1]; [19]) of the same compound?
A: 6.72 µM

Q: What about the TGI (Malme-3M [1]; read-out: TGI) of the same compound?
A: 3.64 µM

Q: What about the GI50 (Malme-3M [1]; read-out: pGI50 (converted)) of the same compound?
A: 1.95 µM

Q: What about the CC50 (Malme-3M [1]; [20]) of the same compound?
A: 6.76 µM

Q: What about the TGI (Malme-3M [1]; read-out: pTGI (converted)) of the same compound?
A: 3.63 µM

Q: And the Activity (MCF7)?
A: 91%

Q: What about the Activity (KM12) of the same compound?
A: 91%

Q: What about the GI50 (MDA-MB-468 [2]; read-out: GI50) of the same compound?
A: 1.82 µM

Q: What about the CC50 (MDA-MB-468 [2]; [19]) of the same compound?
A: 5.96 µM

Q: And the TGI (MDA-MB-468 [2]; read-out: TGI)?
A: 3.29 µM

Q: And the GI50 (MDA-MB-468 [2]; read-out: pGI50 (converted))?
A: 1.82 µM

Q: What about the CC50 (MDA-MB-468 [2]; [20]) of the same compound?
A: 6.03 µM

Q: What about the TGI (MDA-MB-468 [2]; read-out: pTGI (converted)) of the same compound?
A: 3.31 µM

Q: What about the Activity [3] of the same compound?
A: 92%

Q: What about the Activity (MDA-MB-231) of the same compound?
A: 87%

Q: What about the GI50 (TK-10 [4]; read-out: GI50) of the same compound?
A: 2.15 µM

Q: What about the TGI (TK-10 [4]; read-out: TGI) of the same compound?
A: 3.75 µM

Q: What about the GI50 (TK-10 [4]; read-out: pGI50 (converted)) of the same compound?
A: 2.14 µM

Q: What about the TGI (TK-10 [4]; read-out: pTGI (converted)) of the same compound?
A: 3.72 µM

Q: What about the Activity (LOX IMVI) of the same compound?
A: 93%

Q: And the Activity (HCT-15 [5])?
A: 94%

Q: What about the Activity (M14) of the same compound?
A: -75%

Q: And the Activity (NCI-H23 [6])?
A: 94%

Q: What about the Activity (TK-10 [7]) of the same compound?
A: -47%

Q: What about the Activity [8] of the same compound?
A: 92%

Q: And the Activity (OVCAR-3)?
A: 96%

Q: And the Activity (HCT-15 [9])?
A: 91%

Q: What about the Activity (SF-539) of the same compound?
A: 99%

Q: And the Activity (SNB-19)?
A: -42%

Q: What about the Activity (Malme-3M [10]) of the same compound?
A: 81%

Q: And the Activity (A498)?
A: 81%

Q: What about the GI50 (Hs-578T; read-out: GI50) of the same compound?
A: 14.9 µM

Q: And the CC50 (Hs-578T; [19])?
A: > 100 µM

Q: And the TGI (Hs-578T; read-out: TGI)?
A: 41.7 µM

Q: What about the GI50 (Hs-578T; read-out: pGI50 (converted)) of the same compound?
A: 14.8 µM

Q: And the CC50 (Hs-578T; read-out: pLC50 (converted))?
A: > 100 µM

Q: And the TGI (Hs-578T; read-out: pTGI (converted))?
A: 41.7 µM

Q: And the Activity (SK-OV-3 [11])?
A: 101%

Q: And the GI50 (SNB-75; read-out: GI50)?
A: 7.71 µM

Q: And the CC50 (SNB-75; [19])?
A: 48.8 µM

Q: What about the TGI (SNB-75; read-out: TGI) of the same compound?
A: 21.7 µM

Q: And the GI50 (SNB-75; read-out: pGI50 (converted))?
A: 7.76 µM

Q: What about the CC50 (SNB-75; [20]) of the same compound?
A: 49 µM

Q: And the TGI (SNB-75; read-out: pTGI (converted))?
A: 21.9 µM

Q: And the Activity (TK-10 [12])?
A: 105%

Q: And the GI50 (BT-549; read-out: GI50)?
A: 14.7 µM

Q: And the LC50 (concentration killing 50% of cells) (BT-549; read-out: LC50)?
A: 63.9 µM

Q: What about the TGI (BT-549; read-out: TGI) of the same compound?
A: 30.7 µM

Q: What about the GI50 (BT-549; read-out: pGI50 (converted)) of the same compound?
A: 14.8 µM

Q: And the LC50 (concentration killing 50% of cells) (BT-549; read-out: pLC50 (converted))?
A: 64.6 µM

Q: What about the TGI (BT-549; read-out: pTGI (converted)) of the same compound?
A: 30.9 µM

Q: What about the Activity (SK-OV-3 [13]) of the same compound?
A: -95%

Q: What about the GI50 (K562 [14]; read-out: GI50) of the same compound?
A: 1.91 µM

Q: And the CC50 (K562 [14]; [19])?
A: > 100 µM

Q: What about the TGI (K562 [14]; read-out: TGI) of the same compound?
A: 4.74 µM

Q: And the GI50 (K562 [14]; read-out: pGI50 (converted))?
A: 1.91 µM

Q: And the CC50 (K562 [14]; [20])?
A: > 100 µM

Q: What about the TGI (K562 [14]; read-out: pTGI (converted)) of the same compound?
A: 4.79 µM

Q: And the Activity (UACC-257)?
A: -87%

Q: And the Activity (786-0)?
A: -84%

Q: What about the Activity (NCI-H226) of the same compound?
A: 85%

Q: What about the Activity (K562 [15]) of the same compound?
A: 86%

Q: What about the Activity (SF-268) of the same compound?
A: 83%

Q: And the Activity (NCI-H23 [16])?
A: 100%

Q: What about the Activity (MDA-MB-468 [17]) of the same compound?
A: 94%

Q: What about the Activity (OVCAR-5) of the same compound?
A: 105%

Q: And the GI50 ([18]; read-out: GI50)?
A: 2.23 µM

Q: And the CC50 [18, 19]?
A: 43.2 µM

Q: What about the TGI ([18]; read-out: TGI) of the same compound?
A: 5.8 µM

Q: And the GI50 ([18]; read-out: pGI50 (converted))?
A: 2.24 µM

Q: And the CC50 [18, 20]?
A: 43.7 µM

Q: And the TGI ([18]; read-out: pTGI (converted))?
A: 5.75 µM
